US7514251B2, “O-methyltransferases of tetrahydrobenzylisoquinoline alkaloid biosynthesis in Papaver somniferum” (priority 2003, dated 2009)
Where two headings read alike, the source gives them in different places. Marks after values point to notes of the source that are not given here.

What was measured:
Type in all cases: biochemical
[1] = target: T1, PSOMT1 ((R,S)-reticuline 7-O-methyltransferase) (Papaver somniferum, UniProt Q6WUC2); conditions: for Substrate specificity, relative activity of PSOMT1: 100% activity = 1.5 pmoles/sec/mg total protein, radioassay; for methylated by PSOMT1 (radioassay, in words): one of forty substrates tested; for Vmax Substrate / kcat Substrate / pH optimum of methylation / ratio kcat/Km / temperature optimum / Km: PSOMT1
T1 construct: The full-length cDNA generated by RT-PCR was ligated into pFastBac HTa; His6 (N); made in house; host or cells: Spodoptera frugiperda Sf9 (baculovirus, pFastBac HTa)
Source text: (§1) Heterologous Expression and Enzyme Purification—The full-length cDNA generated by RT-PCR was ligated into pFastBac HTa that had been digested with restriction endonucleases BamHI and NotI. The recombinant plasmid was transposed into baculovirus DNA in the Escherichia coli strain DH10BAC (Life Technologies) and then transfected into Spodoptera frugiperda Sf9 cells according to the manufacturer's instructions. The insect cells were propagated and the recombinant virus was amplified according to (16,17). INSECT-XPRESS serum-free medium (Bio Whittaker) was used in the enzyme expression experiments.
(§2) After infection of 20 ml suspension grown insect cells had proceded for 3-4 days at 28° C. and 130 rpm, the cells were removed by centrifugation under sterile conditions at 900× g for 5 min at 4° C. All subsequent steps were performed at 4° C. The pellet was discarded and to the medium was added 0.73 g NaCl, 2.5 ml glycerol and 50 μl […]-mercaptoethanol. The pH was adjusted to 7.0 with 1.0 M NaOH. The His-tagged O-methyltransferase was then purified by affinity chromatography using a cobalt resin (Talon, Clontech) according to the manufacturer's instructions.
(§3) Enzyme assay and product identification: The O-methylation reactions catalysed by the two O-methyltransferases were assayed at least two times in duplicate according to Rüffer et al. (1983a; 1983b) as follows. Substrate (25 nmol), [methyl-3H]-AdoMet (20,000 dpm, 0.4 fmol), AdoMet (10 nmol) Tris/HC1 buffer pH 8.0 (10 μmol), ascorbate (5 μmol) and 5-10 μg of enzyme were incubated in a total volume of 150 μl at 35° C. for 5-60 min. The enzymic reaction was terminated by addition of 200 μl ethylacetate. The organic phase ([…]) was added to 3 ml high flash point liquid scintillation cocktail (Packard) and the radioactivity quantified with a Beckman LS6000TA liquid scintillation counter.
(§4) General Methods—Total RNA was isolated and RNA gels were run and blotted as described previously (20). Genomic DNA was isolated and DNA gels were run and blotted according to (21). cDNA clones were labeled by PCR labeling with [[…]-^32P]dATP. Hybridized RNA on RNA gel blots and DNA on DNA gel blots were visualized with a STORM phosphor imager (Molecular Dynamics). The entire nucleotide sequence on both DNA strands of the full-length clone was determined by dideoxy cycle sequencing using internal DNA sequences for the design of deoxyoligonucleotides as sequencing primers. Saturation curves and double reciprocal plots were constructed with the Fig. P program Version 2.7 (Biosoft, Cambridge, UK). The influence of pH on enzyme activity was monitored in sodium citrate (pH 4-6), sodium phosphate (pH 6-7.0) and Tris-HCl (pH 7.0-9), glycine/NaOH (pH 9-10.5) buffered solutions.

[2] = target: T2, PSOMT2 ((R,S)-norcoclaurine 6-O-methyltransferase) (Papaver somniferum, UniProt Q6WUC1); experiment: Radioassay of recombinant PSOMT2 with [methyl-3H]-AdoMet (substrate specificity, kinetics, pH and temperature optima); conditions: for Substrate specificity, relative activity of PSOMT2: 100% activity = 2.0 pmoles/sec/mg total protein, radioassay; for Vmax Substrate / kcat Substrate / kcat/Km ratio relative to that obtained for (R,S)-norcoclaurine / pH optimum of methyl transfer / Km: PSOMT2; for methylated by PSOMT2 (radioassay, in words): one of forty substrates tested
T2 construct: The full-length cDNA generated by RT-PCR was ligated into pFastBac HTa; His6 (N); made in house; host or cells: Spodoptera frugiperda Sf9 (baculovirus, pFastBac HTa)
T2 sequence (Q6WUC1 1-346): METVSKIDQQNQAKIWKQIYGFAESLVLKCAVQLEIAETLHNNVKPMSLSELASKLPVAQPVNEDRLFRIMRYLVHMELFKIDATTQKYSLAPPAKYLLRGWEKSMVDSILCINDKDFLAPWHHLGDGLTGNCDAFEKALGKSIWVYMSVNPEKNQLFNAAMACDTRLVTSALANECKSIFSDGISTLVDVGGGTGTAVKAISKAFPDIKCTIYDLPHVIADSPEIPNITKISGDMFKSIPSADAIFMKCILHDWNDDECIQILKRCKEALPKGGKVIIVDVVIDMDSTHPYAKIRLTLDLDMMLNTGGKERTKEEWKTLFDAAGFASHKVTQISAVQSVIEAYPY
Source text: as §1, §2, §3, §4

[3] = target: T1, PSOMT1 ((R,S)-reticuline 7-O-methyltransferase); experiment: HPLC-MS identification of enzymic products of PSOMT1; conditions: for position of O-methylation by PSOMT1: HPLC-MS of enzymic product
Description: (§5) The identity of the enzymic reaction products was ascertained by HPLC-MS using a Finnigan MAT TSQ 7000 (electrospray voltage 4.5 kV, capillary temperature 220° C., carrier gas N2) coupled to a Micro-tech Ultra-Plus Micro-LC equipped with an Ultrasep RP18 column; 5 μm; 1×10 mm), Solvent system (A) 99.8% (v/v) H2O, 0.2% HOAc (B) 99.8% CH3CN (v/v), 0.2% HOAc; gradient: 0-15 min 10-90% B, 15-25 min 90% B; flow 70 μl min^−1). The collision-induced dissociation (CID; collision energy, −25 eV; collision gas, argon; collision pressure, 1.8×10^−3 Torr) mass spectra for the tetrahydrobenzylisoquinoline alkaloids were recorded.
(§6) Structure Elucidation of Enzymic Products—Initial enzyme activity measurements were carried out using a radioassay. Many of the substrates tested contained more than one site of potential methylation. […] Tetrahydrobenzylisoquinolines readily cleave at low ionization energies into the corresponding isoquinoline- and benzyl ions. This enables identification of methylation at either moiety. Each alkaloidal substrate was monitored for purity by HLPC-MS and the fragmentation pattern was determined. Enzymic product fragmentation patterns were then compared to those of substrate. All substrates were methylated by either PSOMT1 or PSOMT2 on the isoquinoline moiety. For example, (R)- or (S)-reticuline ([M+H]^+ m/z 330) has the major fragment ions m/z 192 (isoquinoline) and m/z 137 (benzyl). The methylation of (R)- or (S)-reticuline by PSOMT1 results in a product of [M+H]^+ m/z 344 (methylated (R)- or (S)-reticuline) with fragment ions at m/z 206 (isoquinoline+CH2) and m/z 137 (unmodified benzyl). Likewise, (R,S)-norcoclaurine ([M+H]^+ m/z 272) has the major fragment ions m/z 161 (isoquinoline) and m/z 107 (benzyl). The methylation of (R,S)-norcoclaurine by PSOMT2 results in a product of [M+H]^+ m/z 286 (methylated (R,S)-norcoclaurine) with fragment ions at m/z 175 (isoquinoline+CH2) and m/z 107 (unmodified benzyl).

[4] = target: T2, PSOMT2 ((R,S)-norcoclaurine 6-O-methyltransferase); experiment: HPLC-MS identification of enzymic products of PSOMT2; conditions: HPLC-MS of enzymic product
Description: as §5, §6

[5] = co-substrate AdoMet with the named substrate, read-out: Km AdoMet

T1 sequence (Q6WUC2 whole entry): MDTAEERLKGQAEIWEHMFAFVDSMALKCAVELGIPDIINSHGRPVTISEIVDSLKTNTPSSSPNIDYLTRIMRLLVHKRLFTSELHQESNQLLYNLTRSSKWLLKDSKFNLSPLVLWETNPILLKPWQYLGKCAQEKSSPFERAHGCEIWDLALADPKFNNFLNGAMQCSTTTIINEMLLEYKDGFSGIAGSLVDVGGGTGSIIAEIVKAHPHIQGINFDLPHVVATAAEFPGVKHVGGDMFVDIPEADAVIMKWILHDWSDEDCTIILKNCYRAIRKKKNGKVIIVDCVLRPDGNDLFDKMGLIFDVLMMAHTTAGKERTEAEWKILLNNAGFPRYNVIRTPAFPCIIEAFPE

| Structure (SMILES) | Substrate specificity, relative activity of PSOMT1 [1] | methylated by PSOMT1 (radioassay, in words) [1] | Substrate specificity, relative activity of PSOMT2 [2] | position of O-methylation by PSOMT1 [3] | share of product that is double methylated 7,4′-O-dimethylorientaline (laudanosine) and monomethylated 4′-O-methylorientaline ([3]; PSOMT1, main product 7-O-methylorientaline) | Vmax Substrate [2] | kcat Substrate [2] | kcat/Km ratio relative to that obtained for (R,S)-norcoclaurine [2] | pH optimum of methyl transfer [2] | Km [2, 5] | Km ([2]; read-out: Km Substrate) | methylated by PSOMT2 (radioassay, in words) [2] | position of O-methylation by PSOMT2 [4] | Vmax Substrate [1] | kcat Substrate [1] | pH optimum of methylation [1] | ratio kcat/Km [1] | temperature optimum [1] | Km [1, 5] | Km ([1]; read-out: Km Substrate) |
| --- | --- | --- | --- | --- | --- | --- | --- | --- | --- | --- | --- | --- | --- | --- | --- | --- | --- | --- | --- | --- |
| COc1cc(C[C@@H]2c3cc(O)c(OC)cc3CCN2C)ccc1O (racemic) [(R,S)-Orientaline] | 48% | methylates | 0% | O-methylated at C-7 | Approximately 1% |  |  |  |  |  |  |  |  |  |  |  |  |  |  |  |
| COc1ccc(C[C@H]2NCCc3cc(O)c(OC)cc32)cc1O [(R)-Norprotosinomenine] | 0% |  | 26% |  |  | 1 pmol/s | 0.02 s⁻¹ | 55% | 7.5 | 200 µM | 5 µM | methylating | at C-6 |  |  |  |  |  |  |  |
| COc1ccc(C[C@H]2c3cc(O)c(OC)cc3CCN2C)cc1O [(S)-Reticuline] | 100^a % | methylates | 0% | O-methylated at C-7 |  |  |  |  |  |  |  |  |  | 4 pmol/s | 0.07 s⁻¹ | 8.0 | 4500 M⁻¹ s⁻¹ | 37 °C | 360 µM | 16 µM |
| COc1ccc(C[C@@H]2c3cc(OC)c(O)cc3CCN2C)cc1O [(R)-Protosinomenine] | 52% | methylates | 0% | O-methylated by PSOMT1 at C-6 |  |  |  |  |  |  |  |  |  | 2 pmol/s | 0.03 s⁻¹ | 9.0 | 1670 M⁻¹ s⁻¹ | 39 °C | 320 µM | 16 µM |
| COc1cc(CC2c3cc(OC)c(O)cc3CCN2C)ccc1O (racemic) [(R,S)-Isoorientaline] | 46% | methylates | 47% | O-methylated by PSOMT1 at C-6 |  | 2 pmol/s | 0.03 s⁻¹ |  | 7.5 | 280 µM | 29 µM | methylating | at C-6 | 1 pmol/s | 0.02 s⁻¹ | 7.5-9.0 | 1440 M⁻¹ s⁻¹ |  | 260 µM | 17 µM |
| COc1ccc(C[C@@H]2NCCc3cc(O)c(OC)cc32)cc1O [(S)-Norprotosinomenine] | 0% |  | 26% |  |  | 1 pmol/s | 0.02 s⁻¹ | 55% | 7.5 | 260 µM | 5 µM | methylating | at C-6 |  |  |  |  |  |  |  |
| COc1ccc(C[C@@H]2c3cc(O)c(OC)cc3CCN2C)cc1O [(R)-Reticuline] | 100^a % | methylates | 0% | O-methylated at C-7 |  |  |  |  |  |  |  |  |  | 4 pmol/s | 0.07 s⁻¹ | 8.0 | 4200 M⁻¹ s⁻¹ | 37 °C | 310 µM | 17 µM |
